Source: ChEMBL document CHEMBL1144071, “Elisabatins A and B: new amphilectane-type diterpenes from the West Indian sea whip Pseudopterogorgia elisabethae” (1999)
Activity calls are given as the source filed them. The calls are words filed in the database; no cut-off is given here.

What was measured:
[1] = tested on: Human immunodeficiency virus; assay: Antiviral activity against HIV by NCI test; type: functional, organism-based
[2] = tested on: Mycobacterium tuberculosis; assay: Antimycobacterial activity against Mycobacterium tuberculosis at 12.5 ug/mL; type: functional

CC(C)=C[C@@H]1C[C@H](C)c2c(O)cc(C)c3c2C1=C(C)C(=O)C3=O [ELISABATIN A]
Activity [1]: inactive
Activity [2]: 21%
